3 molecules from patent publication US10835611B2, “Neurotherapeutic nanoparticle compositions comprising leukemia inhibitory factor” (Yale University, priority 2012, dated 2020) can be followed below.

For test [1], the system named is primary rat E14 VM tissue. Nature of the test: Anti-Thy-1 directed BDNF or 7,8-DHF nanoparticles versus free factor in primary rat E14 VM cultures. The class given is cell-based. The following applies: 7 days in vitro. On the procedure:
To compare the effect of brain-derived neurotrophic factor (BDNF), or the BDNF agonist 7,8-dihydroxy flavone (7,8-DHF), when in a nano-particulate formulation targeted to Thy-1, versus free, primary rat E14 VM tissue was mixed with 100 μl of nanoparticle solution (0.05 mg; 0.1 mg; 1.0 mg nanoparticles/ml), or with free growth factor (10 nM; 100 nM; 1 μM; 10 μM) immediately prior to plating. After first confirming presence of Thy-1 antigen on the surface of TH+ neurons (data not shown), anti-Thy-1 decorated nanoparticles were prepared as either empty; or BDNF-nanoparticles; or 7,8 DHF-nanoparticles. Cultures were fixed after 7 days in vitro and analysed via immunocytochemistry for tyrosine hydroxylase positive cells. […] This is shown for 7,8 DHF-nanoparticles in FIG. 11A and FIG. 11B where the dose-response curve is similar to that reported by Jang et al (Jang et al, Proc. Natl. Acad. Sci. USA, 2010), with the exception of the high dose (10 μM) decline observed here.

Test [2] concerns dopaminergic neurons in E14 VM cultures. The test is described as follows: Growth medium supplemented with soluble LIF, TH+ neuron count in E14 VM cultures. It is filed as cell-based, rat. On the procedure:
The VM of E14 rat foetuses was dissected and dissociated in standard conditions. Primary E14 VM tissue was dissociated and grown as monolayer cultures. After plating cells were chronically treated with soluble LIF in their growth medium ranging from 0.1 ng/ml to 100 ng/ml.

Test [3] shares this test system. Nature of the test: LIF treatment during dissociation of E14 VM tissue, TH+ neuron count in monolayer culture. The class given is cell-based, rat. The following applies: tissue dissociated in 0.1 ng/ml LIF. On the procedure:
The VM of E14 rat foetuses was dissected and dissociated in medium with or without 0.1 ng/ml soluble LIF. The tissue was then plated in monolayer culture and grown for 2, 3 or 5 days prior to fixing. Dissociated cells were seeded in monolayer cultures and fixed after 2, 3 or 5 days in vitro (DIV).

Test [4] relates to E14 VM neural progenitor cells. Nature of the test: E14 VM neurosphere expansion with soluble LIF, subsequent differentiation in monolayer culture. The class given is cell-based, rat. The following applies: 0.1 ng/ml LIF during neurosphere expansion; monolayer without LIF. The method, then:
To investigate the effect of LIF treatment on the differentiation of E14 VM, tissue was grown as neurospheres in expansion medium with or without 0.1 ng/ml soluble LIF. Primary ventral midbrain tissue was expanded in medium containing the mitogens EGF and FGF-2 for 5 days. These neurospheres were then dissociated into single cells and plated in monolayer culture in the absence of LIF. After 5 days of growth these cultures were analysed via immunocytochemistry for neural and astroglial differentiation (FIGS. 6A and 6B, showing morphology + or − LIF). The presence of LIF during the expansion of E14 VM had no effect on subsequent differentiation (FIG. 7 showing results after 5 and 10 days).

Test [5] deals with dopaminergic neurons in E14 VM cultures. Nature of the test: Dopaminergic apoptosis (TH, cleaved caspase-3, condensed nucleus) in E14 VM monolayer cultures. The class given is cell-based, rat. The method, then:
A subset of tyrosine hydroxylase neurons co-localised with cleaved caspase-3 and a condensed nucleus, both markers of apoptotic cells. […] Immunocytochemical analysis was performed to determine whether LIF treatment (soluble or targeted nanoparticles) decreased the number of apoptotic dopaminergic neurons in these cultures.
E14 VM monolayer cultures, treated with soluble LIF or LIF/empty nanoparticles were fixed after 2, 3 or 5 days.

Regarding `O=c1cc(-c2ccccc2)oc2c(O)c(O)ccc12` [7,8-DHF, 7,8-dihydroxy flavone, reference compound], in test [1], the longest neurite length entry is listed as “neither soluble 7,8-DHF nor 7,8-DHF-nano altered”, the “number of primary neurites” value is listed as “neither soluble 7,8-DHF nor 7,8-DHF-nano altered” and the “serotonergic cells versus dopaminergic cells” value is listed as “constant ratio”.
Turning to “LIF: leukaemia inhibitory factor, member of the IL-6 family of cytokines, used soluble in medium”, the “number of TH positive neurons” value in test [2] (all LIF dosages above 0.1 ng/ml (up to 100 ng/ml)) is “no significant effect”. The “number of tyrosine hydroxylase positive neurons” value in test [2] (growth medium with 0.1 ng/ml LIF, 3 and 5 days in vitro) is given as “significantly increase”. Besides, the “number of TH+ neurons” value in test [3] (3 and 5 days in vitro) is “effect was lost”; in test [3] (2 days in vitro) it was “significantly more”. In test [4], the “subsequent neural and astroglial differentiation” value is given as “no effect”. In addition, in test [5] (2 days in vitro), the “level of dopaminergic apoptosis” value is recorded as “significant reduction”. In addition, the dopaminergic apoptosis entry in test [5] (3 days in vitro) is “did not reach statistical significance”.

B1: BDNF: brain-derived neurotrophic factor (protein, UniProt P23560 19-247, looked up)
Neurotrophic factor BDNF …: APMKEANIRGQGGLAYPGVRTHGTLESVNGPKAGSRGLTSLADTFEHVIEELLDEDQKVRPNEENNKDADLYTSRVMLSSQVPLEPPLLFLLEEYKNYLDAANMSMRVRRHSDPARRGELSVCDSISEWVTAADKKTAVDMSGGTVTVLEKVPVSKGQLKQYFYETKCNPMGYTKEGCRGIDKRHWNSQCRTTQSYVRALTMDSKKRIGWRFIRIDTSCVCTLTIKRGR
As to B1, in test [1], the longest neurite length result was “significant increase”, the “number of primary neurites” value was “significant increase” and the “serotonergic cells versus dopaminergic cells” value is “constant ratio”.
